The values that follow come from patent US20250057813A1, “APOPTOSIS RELATED PROTEIN IN THE TGF-BETA SIGNALING PATHWAY (ARTS) MIMETIC COMPOUNDS, COMPOSITIONS, METHODS AND USES THEREOF IN INDUCTION OF APOPTOSIS” (Carmel-Haifa University Economic Corporation Ltd., priority 2022, published 2025).

The test system of test [1] is HeLa cells. In words: Western blot of HeLa cells exposed to B3. The test is classed as cell-based. As to conditions: 30 μM, 2-24 hrs. The procedure: (§1) The cells were lysed in WCE (whole-cell extract) buffer [25 mM Hepes, pH 7.7, 0.3M NaCl, 1.5 mM MgCl2, 0.2 mM EDTA, 0.1% Triton X-100, 100[μg/ml PMSF and protease inhibitor cocktail (Roche, 1:100 dilution)]. 100 μg of total cell protein, measured with the Bio-Rad Protein Assay kit, were separated by SDS-PAGE (12%) followed by transfer for 2 h on to a nitrocellulose membrane. The membrane was blocked with 5% (w/v) non-fat dried skimmed milk powder in PBS supplemented with 0.05% Tween20 (PBS-T) for 1 hour at room temperature (R.T). Membrane was then probed with primary antibody at 4° C. overnight. Next, the membrane was incubated with the appropriate HRP-conjugated secondary antibody, for 1 hour at R.T. and washed 15 min ×3 with PBS-T. WesternBright ECL (Advansta) was added to the membrane for 2 min and analyzed using ImageQuant LAS-4000 analyzer (GE Healthcare Life Sciences) & “ImageQuant LAS-4000” software (GE Healthcare Life Sciences). Densitometry analysis was performed using ImageQuant total lab 7 (GE Healthcare Life Sciences), image analysis software.

Test [2] has as its system SKMEL-5, A-375, UACC257, Hela wt, Mefs. The experiment in a line: Western blot, B3 apoptotic effect on different cell lines. Type of test: cell-based. As to conditions: 20 μM, 24 h. How it is done: as §1
Test [3] relates to WT MEFs and Sept4/ARTS KO MEFs cells. The experiment in a line: Western blot of WT MEFs and Sept4/ARTS KO MEFs. Type of test: cell-based, mouse. As to conditions: 20 or 40 μM, 24 hours. How it is done: (§2) Cells were lysed in whole-cell extract buffer [25 mM HEPES, pH 7.7, […], 1.5 mM MgCl2, 0.2 mM EDTA, 0.1% Triton X-100, 100 μg/ml phenylmethylsulfonyl fluoride (PMSF) and protease inhibitor cocktail (Roche, 1:100 dilution)] and placed on ice for 30 min (vortexing once after 15 min). After 30 minutes, the samples were centrifuged at 13,000×g for 10 minutes at 4° C. The supernatants containing total protein were measured for protein concentration using Bio-Rad Protein Assay Dye Reagent Concentrate Kit. 40 to […] was separated by sodium dodecyl sulfate-polyacrylamide gel electrophoresis (SDS-PAGE) (12% or 7.5%), followed by transfer to a nitrocellulose membrane. The membranes were blocked with 5% (w/v) non-fat dried skimmed milk powder in PBS supplemented with 0.05% Tween-20 (PBS-T) for 1 h at RT. Next, primary antibodies were added at 4° C. overnight or for 2 h at room temperature. Membranes were then incubated with secondary antibody for 1 h at RT and washed three times for 15 min each with PBS-T. Western Bright ECL (Advansta) was added to the membrane for 30-60 s and analyzed using Image Quant LAS-4000 (GE Healthcare Life Sciences) and Image Quant LAS-4000 software (GE Healthcare Life Sciences).

Test [4] addresses T1, XIAP-BIR3 (Homo sapiens, UniProt P98170).
T1 construct: fused on or other part: NT650 fluorescent dye attached covalently by maleimide coupling; the protein is otherwise untagged
In words: MST binding of B3 to fluorescently labelled recombinant XIAP. As to conditions: spread printed +/−11 μM, read-out: Kd, direct binding to XIAP-BIR3. The procedure: Microscale thermophoresis (MST) binding assays were performed by CreLux, a WuXi AppTech company in Germany, using recombinant ARTS, XIAP, Bcl-2 and cIAP1 proteins. Specifically, for performing experiments with untagged XIAP, a fluorescent label (NT650) was covalently attached to the protein (Maleimide coupling). The labelling was performed in a buffer containing 50 mM HEPES pH 7.0, 150 mM NaCl and 0.005% Tween-20.
Microscale thermophoresis (MST) binding assays were performed by CreLux, a WuXi AppTech company in Germany, using recombinant ARTS and XIAP proteins. Specifically, for performing experiments with untagged XIAP, a fluorescent label (NT650) was covalently attached to the protein (Maleimide coupling). The labeling was performed in a buffer containing 50 mM HEPES pH 7.0, 150 mM NaCl, and 0.005% Tween-20. A detailed description is provided in the Supplementary Materials and methods.

The subject of test [5] is MCF10AT1K (M2) cells. In words: TUNEL assay in M2 cells in 3D BME system. As to conditions: 40 μM, 24 h. Type of test: cell-based, Human. How it is done: Cells were harvested from their growth plates using 0.25% trypsin EDTA. Collected cells were cultured in Cultrex® growth factor reduced Basement Membrane Extract (BME: Trevigen, Inc) as follows: An 8 chamber glass slide system (Lab-TEK® II, Naperville, IL) was coated with 60 μl BME [Barkan D. et al., Cancer Research (2008)](protein concentration between […]; thickness-1-2 mm). 5×10^3 cells per well were re-suspended in DMEM/F12 supplemented with 2.5% DHS and 2% BME and cultured on the coated slides. Slides were incubated at 37° C., 5% CO2 incubator. Cells were re-fed every 4 days. Cell morphology was monitored by light microscopy. Immunofluorescence images were captured by Nikon Al—R confocal laser scanning microscope (Haifa University, Haifa, Israel).
The cells were cultured as described above in 8 well chamber glass slides, fixed according to Barkan's immunofluorescence staining protocol and incubated for 1 hour with a mixture of TUNEL reaction mix according to the manufacturer's protocol (In Situ Cell death Detection Kit, TMR Red; Roche, Cat #12-156-792-910) covered with aluminum foil and placed in the 37° C., 5% CO2 incubator. Following incubation, slides were washed three times with PBS for 5 minutes each, and mounted with […] mounting medium with DAPI. DAPI stain was used to assess total cell number. […]

Test [6] deals with HCT116 WT cells. In words: Western blot analysis of HCT116 WT cells. The test is classed as cell-based. How it is done: as §2
The target of test [7] is T2, binding between XIAP and p53 (Homo sapiens, UniProt P98170).
T2 construct: expressed in transfected cells; host or cells: WT MEFs
T2 sequence (P98170 whole entry): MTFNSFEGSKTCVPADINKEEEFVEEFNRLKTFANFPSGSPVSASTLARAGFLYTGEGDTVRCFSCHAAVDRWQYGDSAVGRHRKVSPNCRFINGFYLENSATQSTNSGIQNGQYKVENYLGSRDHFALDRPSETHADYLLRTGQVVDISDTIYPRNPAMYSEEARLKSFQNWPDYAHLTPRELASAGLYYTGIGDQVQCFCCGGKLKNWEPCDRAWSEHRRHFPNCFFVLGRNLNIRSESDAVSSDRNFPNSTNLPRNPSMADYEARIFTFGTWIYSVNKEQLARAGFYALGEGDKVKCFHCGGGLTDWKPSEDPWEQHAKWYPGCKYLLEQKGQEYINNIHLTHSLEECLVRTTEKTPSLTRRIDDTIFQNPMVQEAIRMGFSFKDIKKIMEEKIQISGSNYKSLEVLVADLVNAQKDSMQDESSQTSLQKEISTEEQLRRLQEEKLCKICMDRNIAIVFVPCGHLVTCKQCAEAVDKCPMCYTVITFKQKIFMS
The experiment in a line: BiFC assay in WT MEFs (VN-p53 and VC-XIAP). The test is classed as cell-based. As to conditions: 20 μM B3 for 18 hours. From the text:
The split-Venus BiFC system was used to evaluate close proximity indicating possible direct binding between pairs of proteins. The proteins were fused either to the N-terminal part of the VenusYFP (yellow fluorescence protein) (VN) or the C-terminal domain (VC). All Venus fragments were fused to the C-terminal sequences of these proteins. The Jun and bFos pair was used as a positive control (p.c.), and the Jun and bFosdeltaZTP pair was used as a negative control (n.c.). A vector encoding dsRed was used as a transfection efficiency marker.

T1 sequence (P98170 241-356 limits assumed): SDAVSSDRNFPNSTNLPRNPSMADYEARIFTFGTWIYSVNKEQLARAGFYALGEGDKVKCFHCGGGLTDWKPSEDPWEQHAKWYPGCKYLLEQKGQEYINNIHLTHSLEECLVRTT

As to `Cn1ccnc1C(=O)c1ccc(NC(=O)C(=O)N[C@H](CO)Cc2ccccc2)cc1` [B3, (S)-N1-(1-hydroxy-3-phenylpropan-2-yl)-N2-(4-(1-methyl-1H-imidazole-2-carbonyl)phenyl)oxalamide], in test [1], the anti-apoptotic markers entry is listed as “reduction”. Further, the “cleavage of apoptotic markers Caspase3 and PARP” value in test [2] is recorded as “induced cleavage”. Besides, in test [3], the XIAP levels entry is “downregulates” and the p53 levels entry was “upregulate”. Further, the dissociation constant (Kd) in test [4] was 36 µM. Further, the “number of cells positive for TUNEL staining” value in test [5] is listed as “significant increase”. Also, in test [6] (20 uM, 24 hrs), the XIAP levels entry is recorded as “decrease” and the “cleavage of early apoptotic marker Caspase 9” value is “increase”. For the same molecule, in test [6] (10, 20, 30 μM B3, 24 hours), the MDM2 levels entry is recorded as “reduction”, the XIAP levels result is “reduction”, the “cPARP or caspase3” value is on record as “elevation” and the p53 levels entry was “elevation”. For the same molecule, the “binding between VN-p53 and VC-XIAP” value in test [7] is recorded as “disrupted”.
